Data published in patent US10093673B2, “Tetracyclic pyridone compounds as antivirals” (Novartis AG, priority 2016, dated 2018).
Values after ≈ are worked out from the molar mass of the structure shown.

What was measured:
HBsAg secretion = test: HBsAg assay (ELISA of secreted HBsAg, HepG2-Clone42 cells); assay type: cell-based, HBV; conditions: Hepatitis B virus, read-out: HBsAg EC50, HepG2-Clone42 cells, HBsAg secretion reduced 50% vs DMSO control
Procedure: HepG2-Clone42, a Tet-inducible HBV-expressing cell line with a stably integrated 1.3mer copy of the HBV ayw strain, was generated based on the Tet-inducible HepAD38 cell line with slight modifications. Ladner S K, et al., Antimicrobial Agents and Chemotherapy. 41(8):1715-1720 (1997). HepG2-Clone42 cells were cultured in DMEM/F-12+Glutamax™ (Life Technologies, Carlsbad, Calif., USA), supplemented with 10% fetal bovine serum (Life Technologies), G-418 (Corning, Manassas, Va., USA) at a final concentration of 0.5 mg/mL, and 5 μg/mL Doxycycline (Sigma, St. Louis, Mo., USA) and maintained in 5% CO2 at 37° C.
HepG2-Clone42 cells were seeded in into black clear-bottom 96-well plates at a concentration of 6.0×10^4 cells/well. 24 hours post-seeding, the cells were treated with 200 μl/well of media containing five-fold serial dilutions of compounds in DMSO. DMSO alone was used as the no drug control. The final DMSO concentration in all wells was 0.5%.
The HBsAg ELISA kit (Alpha Diagnostic International, San Antonio, Tex., USE, Catalog #4110) was used to determine the level (semi-quantitative) of secreted HBV sAg.
The HBSAg ELISA assay was performed following the manufacturer's protocol as described.
Step 1. Pipet 100 μL each of compound or DMSO treated samples into HBsAg ELISA plates. Seal plates and incubate at room temp for 60 minutes.
Step 2. Aspirate samples and wash three times with Wash Buffer. Dispense 100μ of antibody-HRP conjugate to each well. Incubate at room temp for 30 minutes.
Step 3. Aspirate samples and wash three times with Wash Buffer. Add 100 μL of TMB Substrate to all wells and incubate 15 minutes at room temp.
Step 4. Dispense 100 μL of Stop Solution to each well. Measure absorbance of ELISA plate at 450 nm.
EC50 values were determined as follows: • 1. Determine the percent of HBsAg secretion inhibition. Calculate the percent inhibition on of HBsAg secretion inhibition using the following equation: 100×(XC−MB)/(MD−MB) • where XC is the absorbance signal from compound-treated well; MB is average absorbance signal (background signal) for column 12 (no cells+HBsAg ELISA sample buffer) and MD is average absorbance signal from DMSO-treated wells. Then calculate EC50 values by non-linear regression using a four parameter curve logistic equation. The curve fit model employed is XLFit Dose Response One Site Model 204: y=(A+((B−A)/(1+(10^((C−x)*D))))) where A is the minimum y value, B is the maximum y value, C is the log EC50 value, and D is the slope factor. High Throughput Solubility Measurement • 1. Transfer 20 ul of 10 mM DMSO stock solution into a 96 deep well plate labeled as […] and 5 ul to another plate labeled as compound standard plate. • 2. Place the buffer plate in a Multi-Tainer MT-4 container (FTS Systems). Freeze dry overnight to remove DMSO. • 3. Add 100 ul of Cl-free PBS (pH 6.8) to the dried compound in the buffer plate and 95 ul of DMSO to the standard plate. • 4. The buffer plate is be sonicated in a water bath for 10 min. • 5. The two plates are then placed onto the VWR orbital shaker to equilibrate for 24 hours at room temperature. • 6. The buffer plate is centrifuged at 4000 rpm for 30 min. • 7. Transfer 10 ul aliquots of supernatant from the buffer plate to a sample plate and dilute 5 fold. • 8. Inject both compound standard and sample into the UPLC/UV/CLND/MS to generate multi detector qualitative and quantitive analytical data. • 9. Data was processed with Xcalibur. CLND equimolar response was used for measuring compound concentration of DMSO solution. UV270 nm or MS relative ratio was used for solubility determination.

Nav1.5 = Nav1.5 (Homo sapiens (Human), UniProt Q14524); test: Inhibition of cardiac sodium ion channel Nav1.5; assay type: biochemical
[1] = Pharmacokinetics in mice (iv and PO); assay type: in vivo
[2] = Pharmacokinetics in dog (iv and PO); assay type: in vivo
[3] = Pharmacokinetics in rat (iv and PO); assay type: in vivo
[4] = High throughput solubility measurement in PBS; assay type: physicochemical; conditions: Cl-free PBS, aqueous buffer, thermodynamic from solid; PBS (phosphate-buffered saline), pH 6.8, 24 hours at room temperature
Excerpt: The following table provides data for solubility of compounds of the invention in PBS (phosphate-buffered saline), using a standard solubility screening method.

Compound `COCCCOc1cc2c(cc1OC)-c1cc(=O)c(C(=O)O)cn1[C@H]1[C@@H]2OCC1(C)C` [Compound 4.1, (3aR,12bR)-10-methoxy-11-(3-methoxypropoxy)-3,3-dimethyl-7-oxo-3,3a,7,12b-tetrahydro-2H-furo[3,2-c]pyrido[2,1-a]isoquinoline-6-carboxylic acid] has an EC50 (HBsAg secretion) of 0.3 nM, an EC50 (Nav1.5) greater than 500000 nM and a T1/2term. [1] of 1.8 h. The Cmax ([1]; mouse, in vivo, PO 2.0 mg/kg) was 1900 nM, the Tmax ([1]; mouse, in vivo, PO 2.0 mg/kg) was 1 h and the AUC ([1]; mouse, in vivo, PO 2.0 mg/kg, read-out: AUC PO) was 7.2 µM·h. For the same compound, the clearance ([1]; mouse, in vivo, iv 1.0 mg/kg) was 12.7 mL/min/kg, the bioavailability ([1]; mouse, in vivo, iv 1.0 mg/kg, PO 2.0 mg/kg, read-out: Oral BA (% F)) was 100% and the AUC ([1]; mouse, in vivo, iv 1.0 mg/kg, read-out: AUC iv) was 2.9 µM·h. The Vd ([1]; mouse, in vivo, iv 1.0 mg/kg, read-out: Vss) was 1.5 L/kg, the T1/2term. [2] was 12.3 h and the Cmax ([2]; in vivo, PO 1.0 mg/kg) was 3300 nM. For the same compound, the Tmax ([2]; in vivo, PO 1.0 mg/kg) was 0.8 h, the AUC ([2]; in vivo, PO 1.0 mg/kg, read-out: AUC PO) was 12.8 µM·h and the clearance ([2]; in vivo, iv 0.5 mg/kg) was 2.7 mL/min/kg. The bioavailability ([2]; in vivo, iv 0.5 mg/kg, PO 1.0 mg/kg, read-out: Oral BA (% F)) was 94%, the AUC ([2]; in vivo, iv 0.5 mg/kg, read-out: AUC iv) was 6.2 µM·h and the Vd ([2]; in vivo, iv 0.5 mg/kg, read-out: Vss) was 1.7 L/kg. For the same compound, the T1/2term. [3] was 1.2 h, the Cmax ([3]; in vivo, PO 2.0 mg/kg) was 2600 nM and the Tmax ([3]; in vivo, PO 2.0 mg/kg) was 2 h. The AUC ([3]; in vivo, PO 2.0 mg/kg, read-out: AUC PO) was 10.2 µM·h, the clearance ([3]; in vivo, iv 1.0 mg/kg) was 4.9 mL/min/kg and the bioavailability ([3]; in vivo, iv 1.0 mg/kg, PO 2.0 mg/kg, read-out: Oral BA (% F)) was 65%. It also gave an AUC ([3]; in vivo, iv 1.0 mg/kg, read-out: AUC iv) of 8 µM·h, a Vd ([3]; in vivo, iv 1.0 mg/kg, read-out: Vss) of 0.75 L/kg and a solubility at 24 h [4] of 1600 µM (≈ 687 µg/mL).
